Results from patent publication US20250161216A1, “CATIONIC LIPID ANALOGUES, COMPOSITIONS AND USES THEREOF” (GUANGZHOU LIDE BIOMEDICINE TECHNOLOGY CO., LTD., priority 2022, published 2025).

Test system: C57BL/6 mice
Test: In vivo expression level of Luciferase-mRNA delivered by intravenous injection (bioluminescence imaging)
Details: mRNA-loaded nanoparticles, intravenous (tail vein), 5 μg Luciferase-mRNA, 6 hours; for Fluorescence intensity of liver: compounds of Example 1
Method: Luciferase-mRNA was used as an mRNA model; and the cationic lipid analogues of Examples 1-5 were used to prepare drug-loaded nanoparticles according to the method of Example 6.
200 μL of nanoparticles containing 5 μg Luciferase-mRNA or the drug-loaded nanoparticles prepared above were injected into tail veins of 6-8 week-old C57BL/6 mice, and 200 μL of 1×PBS solution containing 3 mg D-Luciferin potassium salt was intraperitoneally injected into the mice 6 hours later. After waiting for 10 minutes, an in vivo expression level of the mRNA was evaluated by bioluminescence imaging.

Row | Compound | Fluorescence intensity of liver | Fluorescence intensity of spleen (compounds of Example 2) | also measured
1 | CCCCCCCCCCCCCCCCCC(=O)N(CCO)C(C(=O)NCCN(CCNC(=O)C(C(C)C)N(CCO)C(=O)CCCCCCCCCCCCCCCCC)CCNC(=O)C(C(C)C)N(CCO)C(=O)CCCCCCCCCCCCCCCCC)C(C)C (centres unmarked) [A1I5R22C18] |  |  | Fluorescence intensity of spleen (compounds of Example 3): 1.10E+05
2 | CCCCCCCCCCCCCCCCCCNC(=O)C(C1CCCCC1)N(CCN(C)C)C(=O)CCCCCCCCCCCCCCCCC (centres unmarked) [A23I18R1C18] | 9.09E+04 |  | 
3 | CC/C=C\C/C=C\C/C=C\CCCCCCCC(=O)N(CCCN(C)C)C(C(=O)NCCCCCCCCCCCCCCCCCC)C1CCCCC1 (centres unmarked) [A23I18R2C18-3] | 9.49E+05 |  | 
4 | CCCCC/C=C\C/C=C\CCCCCCCC(=O)N(CCN1CCCC1)C(CCCCC)C(=O)NCCCCCCCCCCCCCCCCCC (centres unmarked) [A4I18R10C18-2] | 7.89E+05 |  | 
5 | CCCCCCCCCCCCC#CC#CCCCCCCCCC(=O)N(CCN(C)C)C(C(=O)NCCCCCCCCCCCCCCCCCC)C1CCCCC1 (centres unmarked) [A23I18R1C23] | 6.11E+06 |  | 
6 | CCCCC/C=C\C/C=C\CCCCCCCC(=O)N(CCCN(CC)CC)C(C(=O)NCCCCCCCCCCCCCCCCCC)C(C)C (centres unmarked) [A1I18R3C18-2] | 1.48E+05 |  | 
7 | CCCCCCCC/C=C\CCCCCCCC(=O)N(CCN1CCCCCC1)C(C(=O)NCCN(C)CCNC(=O)C(C(C)C)N(CCN1CCCCCC1)C(=O)CCCCCCC/C=C\CCCCCCCC)C(C)C (centres unmarked) [A1I4R13C18-1] |  | 2.67E+03 | 
8 | CCCCCCCCCCCCCCCCCC(=O)N(CCCN(C)C)C(C(=O)NCCN(C)CCNC(=O)C(C1CC1)N(CCCN(C)C)C(=O)CCCCCCCCCCCCCCCCC)C1CC1 (centres unmarked) [A21I4R2C18] |  | 1.04E+03 | 
9 | CCCCC/C=C\C/C=C\CCCCCCCC(=O)N(CCN(C)C)C(C(=O)NCCCCCCCCCCCCCCCCCC)C1CCCCC1 (centres unmarked) [A23I18R1C18-2] | 8.25E+06 |  | 
10 | CCCCCCCCCCCCC#CC#CCCCCCCCCC(=O)N(CCCN(C)C)C(C(=O)NCCCCCCCCCCCCCCCCCC)C1CCCCC1 (centres unmarked) [A23I18R2C23] | 2.37E+06 |  | 
11 | CCCCCCCCCCCCCCSSCCC(=O)N(CCO)C(C(=O)NCCN(C)CCNC(=O)C(C(C)C)N(CCO)C(=O)CCSSCCCCCCCCCCCCCC)C(C)C (centres unmarked) [A1I4R22S19] |  | 2.50E+04 | 
12 | CCCCC/C=C\C/C=C\CCCCCCCC(=O)N(CCC)C(C(=O)NCCN(C)CCNC(=O)C(C1CCCCC1)N(CCC)C(=O)CCCCCCC/C=C\C/C=C\CCCCC)C1CCCCC1 (centres unmarked) [A23I4R21C18-2] |  | 6.07E+04 | 
13 | CCCCCCCCCCCCCCCCCCNC(=O)C(C(CC)CCCC)N(CCCN(CC)CC)C(=O)CCCCCCCCCCCCCCCCC (centres unmarked) [A4I18R3C18] | 1.69E+06 |  | 
14 | CCCCC/C=C\C/C=C\CCCCCCCC(=O)N(CCCN(C)C)C(C(=O)NCCCCCCCCCCCCCC)C(CC)CCCC (centres unmarked) [A4I14R2C18-2] | 9.02E+05 |  | 
15 | CCCCCCCC/C=C\CCCCCCCC(=O)N(CCOC)C(C(=O)NCCN(C)CCNC(=O)C(C(CC)CCCC)N(CCOC)C(=O)CCCCCCC/C=C\CCCCCCCC)C(CC)CCCC (centres unmarked) [A4I4R23C18-1] |  | 6.08E+04 | 
16 | CCCCC/C=C\C/C=C\CCCCCCCC(=O)N(CCCN(C)C)C(C(=O)NCCN(C)CCNC(=O)C(C1CCCCC1)N(CCCN(C)C)C(=O)CCCCCCC/C=C\C/C=C\CCCCC)C1CCCCC1 (centres unmarked) [A23I4R2C18-2] |  | 2.18E+03 | 
17 | CCCCCCCCCCCCCCCCCC(=O)N(CCN1CCCCCC1)C(C(=O)NCCN(C)CCNC(=O)C(C(C)C)N(CCN1CCCCCC1)C(=O)CCCCCCCCCCCCCCCCC)C(C)C (centres unmarked) [A1I4R13C18] |  |  | Bioluminescence intensity (compounds of Example 2): 5.76E+02
18 | CCCCCCCCCCCCC#CC#CCCCCCCCCC(=O)N(CCN(C)C)C(C(=O)NCCCCCCCCCCCCCCCCCC)C(CC)CCCC (centres unmarked) [A4I18R1C23] | 1.78E+06 |  | 
19 | CCCCC/C=C\C/C=C\CCCCCCCC(=O)N(CCN1CCCCCC1)C(C(=O)NCCN(C)CCNC(=O)C(C(CC)CCCC)N(CCN1CCCCCC1)C(=O)CCCCCCC/C=C\C/C=C\CCCCC)C(CC)CCCC (centres unmarked) [A4I4R13C18-2] |  | 1.19E+04 | 
20 | CCCCCCCC/C=C\CCCCCCCC(=O)N(CCN(C)C)C(C(=O)NCCCCCCCCCCCCCCCCCC)C(C)C (centres unmarked) [A1I18R1C18-1] | 5.08E+05 |  | 
